Results reported in the NIST ThermoML archive (doi:10.1021/acs.jced.7b00613).
Numbers after ± are expanded uncertainties.

How the values were obtained:
[1] = refractive index (Na D-line) (dimensionless); conditions: 293.15 K; 101.33 kPa; Liquid; Standard Abbe refractometry
[2] = Liquid; for mass density: 293.15 K, 101.33 kPa, Vibrating tube method; for vapor or sublimation pressure: 278.15 K, Closed cell (Static) method

Row | SMILES | refractive index [1] | mass density [2] | vapor or sublimation pressure [2]
1 | O=C=O [carbon dioxide] | – | – | 3962 ± 18 kPa
2 | CC [ethane] | – | – | 2699 ± 14 kPa
3 | CCCCCC [hexane] | 1.375 ± 0.001 | 660 ± 1 kg/m3 | –

Other lines, results leading:

Row | refractive index [1] | mass density [2] | vapor or sublimation pressure [2] | SMILES
4 | 1.391 ± 0.001 | 692 ± 1 kg/m3 | – | CC(C)CC(C)(C)C [2,2,4-trimethylpentane]
5 | 1.396 ± 0.001 | 703 ± 1 kg/m3 | – | CCCCCCCC [octane]
